For one data set, the system named is lactating Holstein cows. Nature of the data set: Milk fat depression model, abomasal infusion of CLA supplements, 4x4 Latin square (Example 4). The data set is classed as in vivo. The settings on record: for inhibitory effects on lipid synthesis: milk fat depression model, general statement; for Milk fat yield reduced / Milk fat % / Milk fat kg/d: 5 g/d of isomer of interest; for Milk fat yield reduced: 5 d; for Milk fat yield reduced / transfer efficiency of specific CLA isomers within respective treatment groups: P<0.001; for Milk fat % / Milk fat kg/d: average of day 4 and 5 of supplementation; for transfer efficiency of specific CLA isomers within respective treatment groups: abomasal infusion 5 g/d. From the text: Four rumen-fistulated lactating Holstein cows (149±18 DIM) were randomly assigned in a 4×4 Latin square experiment. Treatments were abomasal infusions of 1) ethanol (control), 2) trans-10, cis-12 CLA supplement (positive control), 3) trans-9, trans-11 CLA supplement, and 4) trans-9, cis-11 CLA supplement. The trans-10, cis-12 and trans-9, trans-11 CLA supplements were of high purity (>90%), whereas the trans-9, cis-11 CLA supplement consisted mainly of 3 CLA isomers: trans-9, cis-11 (32%), cis-9, trans-11 (29%) and trans-9, trans-11 (17%). CLA supplements supplied 5 g/d of the CLA isomer of interest and the daily dose was provided by infusion at 6 h intervals. Treatment periods were 5 d in length with a 7 d washout interval. Milk yield and DMI were unaffected by treatment (P>0.05). Milk fat yield was reduced 27% by the trans-10, cis-12 CLA treatment and 15% by the trans-9, cis-11 CLA treatment, while the trans-9, trans-11 CLA treatment had no effect (P<0.001). Milk protein content and yield were reduced by the trans-9, trans-11 CLA treatment only (P<0.01). The transfer efficiency of specific CLA isomers within respective treatment groups was 22% for trans-10, cis-12 CLA, 21% for trans-9, trans-11 CLA and 46% for trans-9, cis-11 CLA (P<0.001). […] The data are summarized in Tables 4 and 5 and FIGS. 3 and 4.

A further data set relates to cows. Nature of the data set: Milk fat depression model, continuous abomasal infusion of CLA isomer emulsions (Example 3). The following applies: for inhibitory effects on lipid synthesis: milk fat depression model, general statement; for Yield Fat / Concentration Fat: abomasal infusion of emulsion, 1 g/L CLA, over four days; for Yield Fat: mean treatment effects; for Concentration Fat: milk. The data set is classed as in vivo. As for the experimental part:
When CLA is prepared with alkaline isomerization of linoleic acid, the isomers t10,c12 and c9,t11 are formed. Further, trans, trans isomers of 9,11 and 10,12 can be formed catalytically at high temperatures, as well as t8,c10 and c11,t13. […] This example describes, for the first time, a biological effect of the c10,t12 isomer of CLA.
Emulsions of three different isomer preparations (see Table 2; t10,c12; t10,t12; and a mixture of t10, c12; c10,t12 and t10,t12 isomers; prepared as described in Example 1) were prepared essentially the same way as described by Chouinard, et al., J. Nutr. 129:1579 [1999]. The concentration of CLA in these emulsions was 1 g/L and the emulsions were administered continuously to cows at the rate of 3 1/24 h over four days as described by Chouinard, et al., J. Nutr. 129:1579 [1999]. Briefly, the emulsions were continuously infused into the abomasum via infusion lines that pass through the rumen cannula and omasal canal and peristaltic pumps. Milk was sampled daily and concentration of milk fat was determined by infrared analysis using Milko-Scan 133B analyser (Foss Electric, Hillerød, Denmark). […] Table 3 presents the mean treatment effects on intake and milk production.

The nature of data set [1]: Peroxide values (PV) by ferric thiocyanate method after storage. The data set is classed as physicochemical. The following applies: after storage in open glass. The source says:
The present invention also contemplates stabilization of the c10,t12, c10,c12, t9,c11 and/or c9,c11 compositions by preventing oxidation of the compounds. The present invention is not limited to any one mechanism. Indeed, an understanding of the mechanism of the invention is not necessary to produce the composition or perform the methods of the present invention. […] After storage in open glass, the PV of CLA was 32; in comparison, the value for linoleic acid was 370.

Marks after values point to notes of the source that are not given here.

Take `CCCCCC/C=C\C=C/CCCCCCCC(=O)O` [c9,c11]: in the data set on lactating Holstein cows, the “inhibitory effects on lipid synthesis” value is on record as “strong inhibitory effects”.
With `CCCCC/C=C\C=C/CCCCCCCCC(=O)O` [c10,c12, c10,c12 octadecadienoic acid], in the data set with cows, the “inhibitory effects on lipid synthesis” value was “strong inhibitory effects”.
In the case of `CCCCC/C=C/C=C\CCCCCCCCC(=O)O` [c10,t12, c10,t12 octadecadienoic acid], the “inhibitor of lipid synthesis” value with cows (concluded from the effect of the isomer mixture versus purified t10,c12) is recorded as “stronger inhibitor of lipid synthesis than t10,c12”. The “inhibitory effects on lipid synthesis” value in the data set on cows is “strong inhibitory effects”.
Take `CCCCC/C=C\C/C=C\CCCCCCCC(=O)O` [linoleic acid]: in data set [1], the “peroxide values (PV)” value turned out to be 370.
Take `CCCCCC/C=C/C=C/CCCCCCCC(=O)O` [t9, t11 CLA]: in the data set on lactating Holstein cows, the “Milk fat yield reduced” value is listed as “no effect”, the Milk fat % was 4.03^a %, the Milk fat kg/d is 0.770^a kg/d and the “transfer efficiency of specific CLA isomers within respective treatment groups” value stood at 21%.
For `CCCCCC/C=C\C=C\CCCCCCCC(=O)O` [t9,c11, t9,c11 octadecadienoate], the “inhibitory effects on lipid synthesis” value in the data set on lactating Holstein cows was “strong inhibitory effects”.
On to `CCCCC/C=C\C=C\CCCCCCCCC(=O)O` [t10, c12, t10,c12 octadecadienoic acid], for which, in the data set with cows, the “Yield Fat” value is 573^ab g/day and the “Concentration Fat” value is listed as 29.1^b g/kg. In the data set on lactating Holstein cows, the “Milk fat yield reduced” value is 27%, the Milk fat % is reported as 2.54^d %, the Milk fat kg/d is listed as 0.541^c kg/d and the “transfer efficiency of specific CLA isomers within respective treatment groups” value was found to be 22%.
For `CCCCC/C=C/C=C/CCCCCCCCC(=O)O` [t10, t12, t10,t12 CLA], in the data set with cows, the “Yield Fat” value is 694^a g/day and the “Concentration Fat” value was 7.2^a g/kg. Also, the “effect on the concentration of milk fat” value in the data set on cows (purified form) is reported as “did not have any effect”.

Values taken from patent publication US20050215641A1, “Compositions comprising reverse isomers of conjugated linoleic acid” (priority 2004, published 2005).
